The target of assay [1] is T1, Proteasome Macropain subunit MB1 (Homo sapiens) (UniProt P28074).
T1 sequence (whole entry): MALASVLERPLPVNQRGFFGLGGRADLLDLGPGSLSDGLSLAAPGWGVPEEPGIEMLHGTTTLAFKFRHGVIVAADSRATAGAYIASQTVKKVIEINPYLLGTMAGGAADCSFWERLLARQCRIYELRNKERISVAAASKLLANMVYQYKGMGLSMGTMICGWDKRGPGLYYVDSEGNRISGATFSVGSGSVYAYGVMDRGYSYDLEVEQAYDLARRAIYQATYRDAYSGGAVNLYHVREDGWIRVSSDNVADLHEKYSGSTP
The assay can be described thus: Inhibition of human 20S proteasome beta 5 at 10 uM relative to control.

The species entered for a further assay is Homo sapiens. The assay is described as follows: Inhibition of human 20S proteasome beta 5i subunit at 10 microM relative to control.
In assay [2] the target is T2, Proteasome Macropain subunit MB1 (Homo sapiens, UniProt P28074).
T2 sequence (P28074 whole entry): T1 sequence (whole entry)
The assay can be described thus: Inhibition of human 20S proteasome beta 5.

In another assay the test system is MDA-MB-468. The assay can be described thus: Antiproliferative activity against human MDA-MB-468 cells assessed as reduction in cell viability by SRB assay. On the technique in general: In SRB staining, fixed cells bind dye roughly in proportion to their protein.

Broadly, the inhibition is the percentage by which the read-out fell short of the control. As usually defined, the IC50 is the concentration that gives 50% inhibition.

On to `CC(C)N(Cc1cccc(-c2cccs2)c1)C(=O)c1cc2ccccc2o1`, for which the inhibition in assay [1] is under 30%.

Consider `CCCc1ccc(OCC(=O)N(Cc2nc(-c3ccco3)no2)C(C)C)cc1`, for which the inhibition in the assay listed under Homo sapiens worked out at 7.3%. For the same compound, the figures for the 50% inhibitory concentration (IC50) (in assay [2]; in the assay on MDA-MB-468) were 0.12 µM and 38.8 µM, respectively.

Compound `CCCc1ccc(OCC(=O)N(Cc2cncc(-c3cccnc3)c2)C(C)C)cc1` gave an inhibition in assay [1] of under 30%.

`CC(C)N(Cc1nc(-c2ccco2)no1)C(=O)c1cnc2ccccc2n1` displayed an inhibition in assay [1] of under 30%.

Regarding `CC(C)N(Cc1cccc(-c2ccco2)c1)C(=O)c1cc2ccccc2o1`, in assay [2], the IC50 was 47.3 µM.

For the compound `CC(C)N(Cc1ccc(-c2cccs2)cc1)C(=O)COc1ccc(Oc2ccccc2)cc1`, the inhibition in assay [1] was under 30%.

In assay [2], `CC(C)N(Cc1cccc(-c2cccnc2)c1)C(=O)c1cc2ccccc2o1` came in with an IC50 of 20.2 µM.

For the compound `CCCc1ccc(OCC(=O)N(Cc2nc(-c3ccc4ccccc4n3)no2)C(C)C)cc1`, the IC50 in assay [2] is 0.88 µM; with MDA-MB-468 it was 35 µM.

Regarding `CCCc1ccc(OCC(=O)N(Cc2cncc(-c3cncnc3)c2)C(C)C)cc1`, the inhibition in assay [1] was under 30%.

Consider `CC(C)N(Cc1cccc(-c2cccs2)c1)C(=O)c1ccc2ccccc2n1`, for which the IC50 in assay [2] came out at 3.36 µM; in the assay on MDA-MB-468 it was 31.9 µM.

For `CC(C)N(Cc1cncc(-c2cncnc2)c1)C(=O)c1cc2ccccc2o1`, the inhibition in assay [1] is under 30%.

The compound `CCCc1ccc(OCC(=O)N(Cc2cccc(-c3cccs3)c2)C(C)C)cc1` had an IC50 in assay [2] of 9.45 µM.

Take `CC(C)N(Cc1nc(-c2ccco2)no1)C(=O)c1cc2ccccc2o1`: the IC50 was 0.61 µM in assay [2] and over 40 µM in the assay with MDA-MB-468.

In turn, `CCCc1ccc(OCC(=O)N(Cc2ccc(-c3cccnc3)cc2)C(C)C)cc1` yielded an IC50 in assay [2] of 1.14 µM.

The compound `CC(C)N(Cc1nc(-c2ccco2)no1)C(=O)c1ccc2ccccc2n1` registered an inhibition in assay [1] of under 30%.

In assay [2], `CC(C)N(Cc1nc(-c2ccco2)no1)C(=O)COc1ccc(Oc2ccccc2)cc1` came in with an IC50 of 14.7 µM.

On to `CCCc1ccc(OCC(=O)N(Cc2cccc(-c3cncnc3)c2)C(C)C)cc1`, for which the IC50 was determined as 2.27 µM in assay [2] and 30.2 µM in the assay with MDA-MB-468.

`CC(C)N(Cc1nc(-c2ccc3ccccc3c2)no1)C(=O)c1cc2ccccc2o1`: the inhibition in assay [1] was under 30%.

`CC(C)N(Cc1nc(-c2ccc3ccccc3n2)no1)C(=O)c1cc2ccccc2o1` returned an inhibition in assay [1] of under 30%.

As to `CCCc1ccc(OCC(=O)N(Cc2nc(-c3ccc4ccccc4c3)no2)C(C)C)cc1`, the IC50 in assay [2] is 4.31 µM.

On to `CCCc1ccc(OCC(=O)N(Cc2cccc(-c3cccnc3)c2)C(C)C)cc1`, for which the figures for the IC50 (in assay [2]; with MDA-MB-468) were 1.08 µM and 19.3 µM, respectively.

`CCCc1ccc(OCC(=O)N(Cc2nc(-c3cccs3)no2)C(C)C)cc1` yielded an inhibition in the assay filed under Homo sapiens of 25.3%. Besides, the IC50 in assay [2] is 0.18 µM; in the assay with MDA-MB-468, 27 µM.

For `CCCc1ccc(OCC(=O)N(Cc2nc(-c3cccnc3)no2)C(C)C)cc1`, the IC50 in the assay on MDA-MB-468 is 7.6 µM.

In turn, `CC(C)N(Cc1cncc(-c2cccnc2)c1)C(=O)c1cc2ccccc2o1` returned an inhibition in assay [1] of under 30%.

Regarding `CC(C)N(Cc1ccc(-c2cccnc2)cc1)C(=O)COc1ccc(Oc2ccccc2)cc1`, the values for the IC50 (in assay [2]; with MDA-MB-468) were 1.37 µM and over 40 µM, respectively.

`CC(C)N(Cc1nc(-c2cccnc2)no1)C(=O)COc1ccc(Oc2ccccc2)cc1`: the IC50 was 1.61 µM in assay [2] and 6.8 µM in the assay on MDA-MB-468.

`CCCc1ccc(OCC(=O)N(Cc2cccc(-c3ccco3)c2)C(C)C)cc1`: the IC50 in assay [2] is 10.7 µM.

For the compound `CC(C)N(Cc1cccc(-c2ccco2)c1)C(=O)c1ccc2ccccc2n1`, half-maximal inhibition in assay [2] (IC50) required 61.6 µM.

`CC(C)N(Cc1cccc(-c2cncnc2)c1)C(=O)c1cc2ccccc2o1` yielded an inhibition in assay [1] of under 30%.

`CCCc1ccc(OCC(=O)N(Cc2ccc(-c3cccs3)cc2)C(C)C)cc1`: half-maximal inhibition in assay [2] (IC50) required 33.5 µM.

Take `CC(C)N(Cc1nc(-c2cccs2)no1)C(=O)c1cc2ccccc2o1`: the values for the IC50 (in assay [2]; with MDA-MB-468) were 0.39 µM and over 40 µM, respectively.

The values above are taken from ChEMBL document CHEMBL4665774, “Design, synthesis and biological evaluation of triaryl compounds as novel 20S proteasome inhibitors” (Bioorg Med Chem Lett, 2020).
